# Measurements published in US10253002B2, “Compounds and methods of treating infections” (Neoculi Pty Ltd., priority 2013, dated 2019).
# What was measured:
# MRSA = experiment: Broth microdilution MIC, Example 7 (NCL812 and analogues); assay type: cell-based, Staphylococcus aureus; settings: MIC testing, two MRSA strains
# Experimental: (§1) Minimum inhibitory concentrations (μg/ml) were determined using the broth microdilution method recommended by the Clinical and Laboratory Standards Institute (CLSI). MIC breakpoints were determined by visual assessment and then confirmed using an ELISA plate reader, measuring absorbance levels at 600 nm. Bacterial growth (turbidity) in the wells with antimicrobial was compared with the amount of growth (turbidity) in the growth-control well (containing no antimicrobial). All isolates were tested in duplicate, if there was a difference of greater than one two-fold dilution in the results, the test was repeated a third time. The purity of the isolates was closely monitored during testing by subculturing the prepared bacterial inoculum onto SBA (sheep blood agar). […] The MIC50, MIC20 and MIC range (minimum and maximum) were calculated for each of the bacterial groups.
# (§2) MICs were determined against two MRSA strains, two VRE strains and one strain each of E. coli and Pseudomonas aeruginosa.
# VRE = experiment: as above; assay type: cell-based, Enterococcus spp.; settings: for activity against VRE among analogues: MIC testing, two VRE strains
# Experimental: as §1, §2
Compound,activity against MRSA among analogues (MRSA),activity against VRE among analogues (VRE),"VRE (VRE; bioassay ranking, VRE) [µg/mL]"
Cl.OC/C(=N\Nc1cc(N/N=C(\CO)c2ccc(Cl)cc2)ncn1)c1ccc(Cl)cc1 [NCL189],greatest activity,greatest activity,
Cl.N=C(NN=Cc1cccc(Br)c1)NN=Cc1cccc(Br)c1 [NCL131],,greatest activity,
CC(=NNC(=N)NN=C(C)c1ccccn1)c1ccccn1.Cl [NCL172],greatest activity,,
Cl.N=C(N)NN=C(C(=O)O)c1ccccc1 [NCL192],greatest activity,greatest activity,
COc1ccc(C=CC=NNC(=N)NN=CC=Cc2ccc(OC)cc2)cc1.Cl [NCL150],greatest activity,,
CC(Nc1cc(NC(C)c2ccccc2)ncn1)c1ccccc1 (stereo not shown) [NCL183],greatest activity,greatest activity,
CC(Nc1cc(NC(C)c2ccccc2)nc(N)n1)c1ccccc1 (stereo not shown) [NCL184],greatest activity,greatest activity,32
C/C(=N\Nc1cc(N/N=C(\C)c2ccc(Cl)cc2)ncn1)c1ccc(Cl)cc1 [NCL178],greatest activity,greatest activity,
C/C(=N\Nc1cc(N/N=C(\C)c2ccc(Cl)cc2)ncn1)c1ccc(Cl)cc1.Cl [NCL185],greatest activity,greatest activity,
Cl.N=C(NN=C(c1ccc(Cl)cc1O)C1CCCC1)NN=C(c1ccc(Cl)cc1O)C1CCCC1 [NCL159],greatest activity,greatest activity,
CCCCc1ccc(C=NNC(=N)NN=Cc2ccc(CCCC)cc2)cc1.Cl [NCL136],greatest activity,greatest activity,
Cl.N=C(NN=CC(=Cc1ccccc1)c1ccccc1)NN=CC(=Cc1ccccc1)c1ccccc1 [NCL138],greatest activity,,
Cl.N=C(NN=Cc1csc2ccc(Cl)cc12)NN=Cc1csc2ccc(Cl)cc12 [NCL141],,greatest activity,
Clc1ccc(/C=N/Nc2cc(N/N=C/c3ccc(Cl)cc3)ncn2)cc1 [NCL181],greatest activity,greatest activity,
Cl.N=C(N/N=C/c1ccc(Cl)nc1)N/N=C/c1ccc(Cl)nc1 [NCL175],,greatest activity,
COc1cc(/C=N/NC(=N)N/N=C/c2ccc(O)c(OC)c2)ccc1O.Cl [NCL117],greatest activity,greatest activity,
CC(Nc1cc(Cl)nc(N)n1)c1ccccc1 (stereo not shown) [NCL182],greatest activity,greatest activity,
Cl.N=C(NN=Cc1ccc(SC(F)(F)F)cc1)NN=Cc1ccc(SC(F)(F)F)cc1 [NCL166],greatest activity,greatest activity,
C#Cc1cccc(C=NNC(=N)NN=Cc2cccc(C#C)c2)c1.Cl [NCL126],,greatest activity,
Cl.N=C(NN=Cc1ccc(OC(F)(F)F)cc1)NN=Cc1ccc(OC(F)(F)F)cc1 [NCL160],greatest activity,greatest activity,
